Reference: publication PMC10378394 (Current Issues in Molecular Biology, 2023)

Assays:
PKCθ(h) = PKCθ(h) (Homo sapiens, UniProt Q04759); experiment: Eurofins kinase assay
TIE2 = TIE2 (Homo sapiens, UniProt Q02763); experiment: Eurofins kinase assay
cSRC(h) = cSRC(h) (Homo sapiens, UniProt P12931); experiment: Eurofins kinase assay
Met(h) = Met(h) (Homo sapiens, UniProt P08581); experiment: Eurofins kinase assay
EphB2(h) = EphB2(h) (Homo sapiens, UniProt P29323); experiment: Eurofins kinase assay
LS513 (KRAS G12D) = experiment: Cell proliferation assay (CellTiter-Glo); conditions: Homo sapiens, LS-513, 72 h
Experimental: (§1) To assess cell viability, the CellTiter-Glo Luminescent Cell Viability Assay Reagent (Promega, Fitchburg, WI, USA) was added to each well. The assay measured ATP levels as an indicator of cell viability. All data points were normalized to the control samples treated with dimethyl sulfoxide when determining IC50 values. Statistical calculations and data analysis, including IC50 determination, were performed using GraphPad Prism software.

CDK2/cyclinE(h) = CDK2/cyclinE(h) (Homo sapiens, UniProt P24941); experiment: Eurofins kinase assay
HT29 (BRAF V600E) = experiment: Cell proliferation assay (CellTiter-Glo); conditions: Homo sapiens, HT-29, 72 h
Experimental: as §1

PKD2(h) = PKD2(h) (Homo sapiens, UniProt Q9BZL6); experiment: Eurofins kinase assay
PKD2(h), sequence (Q9BZL6 whole entry): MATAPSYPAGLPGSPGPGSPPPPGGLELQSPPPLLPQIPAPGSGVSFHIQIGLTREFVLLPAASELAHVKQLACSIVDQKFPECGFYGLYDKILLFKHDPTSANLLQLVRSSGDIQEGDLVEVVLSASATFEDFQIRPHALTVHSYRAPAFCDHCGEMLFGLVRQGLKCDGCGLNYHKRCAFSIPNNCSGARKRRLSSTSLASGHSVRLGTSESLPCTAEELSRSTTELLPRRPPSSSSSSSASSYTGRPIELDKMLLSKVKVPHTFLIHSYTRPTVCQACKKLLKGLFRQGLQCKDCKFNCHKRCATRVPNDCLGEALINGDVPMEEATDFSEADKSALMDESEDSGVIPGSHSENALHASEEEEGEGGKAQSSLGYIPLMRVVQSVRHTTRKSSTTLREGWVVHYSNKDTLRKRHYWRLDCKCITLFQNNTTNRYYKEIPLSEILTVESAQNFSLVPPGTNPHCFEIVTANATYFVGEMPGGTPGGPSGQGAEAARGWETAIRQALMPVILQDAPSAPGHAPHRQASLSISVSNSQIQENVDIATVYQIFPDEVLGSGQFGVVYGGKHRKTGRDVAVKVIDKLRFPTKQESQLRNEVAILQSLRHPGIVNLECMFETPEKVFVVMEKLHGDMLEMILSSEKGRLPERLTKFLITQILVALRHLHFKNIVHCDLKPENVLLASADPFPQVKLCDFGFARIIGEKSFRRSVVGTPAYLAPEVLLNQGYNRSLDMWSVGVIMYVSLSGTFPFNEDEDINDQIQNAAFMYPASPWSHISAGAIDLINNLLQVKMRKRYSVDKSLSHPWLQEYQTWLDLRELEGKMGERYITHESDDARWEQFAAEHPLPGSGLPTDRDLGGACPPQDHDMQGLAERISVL

[1] = tested on: KRAS and BRAF mutant cancer cells (HCT116, LS513, SW620, HT29); experiment: Cell growth assay, panel of cell lines; conditions: read-out: IC50 values, cell growth
Experimental: as §1

PI3Kinase(p110a/p85a)(h) = PI3Kinase(p110a/p85a)(h) (Homo sapiens, UniProt P42336); experiment: Eurofins kinase assay
Rsk3(h) = Rsk3(h) (Homo sapiens, UniProt Q15349); experiment: Eurofins kinase assay
Rsk3(h), sequence (Q15349 whole entry): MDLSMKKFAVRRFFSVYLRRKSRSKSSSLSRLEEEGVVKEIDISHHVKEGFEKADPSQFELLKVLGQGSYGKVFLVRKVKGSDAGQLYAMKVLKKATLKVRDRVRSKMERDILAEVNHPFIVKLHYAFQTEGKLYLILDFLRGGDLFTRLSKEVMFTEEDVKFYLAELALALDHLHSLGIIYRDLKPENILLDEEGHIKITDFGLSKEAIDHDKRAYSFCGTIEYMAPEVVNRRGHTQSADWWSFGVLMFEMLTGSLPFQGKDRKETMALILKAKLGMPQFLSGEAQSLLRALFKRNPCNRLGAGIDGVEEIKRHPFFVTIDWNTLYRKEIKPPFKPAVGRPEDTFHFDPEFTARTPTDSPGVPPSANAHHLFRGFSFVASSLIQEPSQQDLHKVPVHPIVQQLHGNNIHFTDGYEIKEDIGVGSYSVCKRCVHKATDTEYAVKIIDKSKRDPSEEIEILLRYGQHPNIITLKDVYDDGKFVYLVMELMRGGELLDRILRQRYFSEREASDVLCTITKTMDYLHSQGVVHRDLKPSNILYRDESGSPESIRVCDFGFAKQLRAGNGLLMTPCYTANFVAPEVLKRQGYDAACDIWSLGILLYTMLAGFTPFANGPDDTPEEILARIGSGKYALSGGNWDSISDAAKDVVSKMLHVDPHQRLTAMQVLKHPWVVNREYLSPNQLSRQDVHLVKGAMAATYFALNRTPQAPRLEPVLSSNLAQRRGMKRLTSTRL

CDK2/cyclinA(h) = CDK2/cyclinA(h) (Homo sapiens, UniProt P24941); experiment: Eurofins kinase assay
SW620 (KRAS G12V) = experiment: Cell proliferation assay (CellTiter-Glo); conditions: Homo sapiens, SW-620, 72 h
Experimental: as §1

[2] = tested on: HCT116 (KRAS G13D) xenograft; experiment: In vivo efficacy, xenograft; design: species or system BALB/c nude mice; conditions: 16 days
Experimental: Human-derived colorectal cancer cell lines, LS513, HCT-116, and HT29, were subcutaneously transplanted into 6-week-old female BALB/c nude mice to establish tumor models. Additionally, the mouse cancer cell line MC38 was subcutaneously transplanted into 6-week-old female and C57BL/6 mice to induce tumor formation. […]. The treatments were administered orally once daily for 2 weeks based on the growth rate observed in the vehicle group. Tumor volume was evaluated three times a week using the formula Tumor volume (TV) = (tumor short diameter ^2 × tumor long diameter)/2. The body weight of the mice was measured three times a week to assess potential toxicity in vivo. […]

CDK7/cyclinH/MAT1(h) = CDK7/cyclinH/MAT1(h) (Homo sapiens, UniProt P50613); experiment: Eurofins kinase assay
CK2(h) = CK2(h) (Homo sapiens, UniProt P68400); experiment: Eurofins kinase assay
MAPK2(h) = MAPK2(h) (Homo sapiens, UniProt P28482); experiment: Eurofins kinase assay
MAPK2(h), sequence (P28482 whole entry): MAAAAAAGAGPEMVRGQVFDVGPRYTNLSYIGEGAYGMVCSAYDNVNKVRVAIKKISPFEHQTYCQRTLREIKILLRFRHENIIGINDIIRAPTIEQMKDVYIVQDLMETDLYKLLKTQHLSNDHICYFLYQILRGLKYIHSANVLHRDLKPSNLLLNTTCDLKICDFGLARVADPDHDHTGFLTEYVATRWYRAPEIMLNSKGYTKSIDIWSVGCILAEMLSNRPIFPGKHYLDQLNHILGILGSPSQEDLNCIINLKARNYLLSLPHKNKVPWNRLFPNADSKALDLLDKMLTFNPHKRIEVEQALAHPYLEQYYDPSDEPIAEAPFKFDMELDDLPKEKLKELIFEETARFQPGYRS

Aurora-A(h) = Aurora-A(h) (Homo sapiens, UniProt O14965); experiment: Eurofins kinase assay
[3] = target: PI3Kinase(p110a(H1047R)/p85a)(m) (Mus musculus, UniProt P42337, H1047R); experiment: Eurofins kinase assay
ARAF = target: T1, ARAF (Homo sapiens, UniProt P10398); experiment: Eurofins kinase assay
T1 sequence (P10398 1-606): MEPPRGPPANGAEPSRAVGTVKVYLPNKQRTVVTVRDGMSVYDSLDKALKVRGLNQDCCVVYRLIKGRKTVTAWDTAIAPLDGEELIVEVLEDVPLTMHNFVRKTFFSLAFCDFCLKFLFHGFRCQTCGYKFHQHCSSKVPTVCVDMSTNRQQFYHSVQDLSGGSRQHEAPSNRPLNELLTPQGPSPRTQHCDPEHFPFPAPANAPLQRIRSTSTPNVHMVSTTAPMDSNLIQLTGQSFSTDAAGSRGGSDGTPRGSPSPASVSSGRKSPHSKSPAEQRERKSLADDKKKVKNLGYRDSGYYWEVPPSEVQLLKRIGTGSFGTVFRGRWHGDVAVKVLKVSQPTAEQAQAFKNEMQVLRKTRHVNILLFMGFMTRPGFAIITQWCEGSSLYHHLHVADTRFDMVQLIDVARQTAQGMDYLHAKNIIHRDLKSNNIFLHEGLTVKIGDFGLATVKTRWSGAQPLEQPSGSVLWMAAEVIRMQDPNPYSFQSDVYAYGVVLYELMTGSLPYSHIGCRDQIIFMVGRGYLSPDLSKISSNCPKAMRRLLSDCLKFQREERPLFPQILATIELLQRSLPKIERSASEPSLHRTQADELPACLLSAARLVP

PKA(h) = PKA(h) (Homo sapiens, UniProt P17612); experiment: Eurofins kinase assay

TIE2, sequence (Q02763 23-1124): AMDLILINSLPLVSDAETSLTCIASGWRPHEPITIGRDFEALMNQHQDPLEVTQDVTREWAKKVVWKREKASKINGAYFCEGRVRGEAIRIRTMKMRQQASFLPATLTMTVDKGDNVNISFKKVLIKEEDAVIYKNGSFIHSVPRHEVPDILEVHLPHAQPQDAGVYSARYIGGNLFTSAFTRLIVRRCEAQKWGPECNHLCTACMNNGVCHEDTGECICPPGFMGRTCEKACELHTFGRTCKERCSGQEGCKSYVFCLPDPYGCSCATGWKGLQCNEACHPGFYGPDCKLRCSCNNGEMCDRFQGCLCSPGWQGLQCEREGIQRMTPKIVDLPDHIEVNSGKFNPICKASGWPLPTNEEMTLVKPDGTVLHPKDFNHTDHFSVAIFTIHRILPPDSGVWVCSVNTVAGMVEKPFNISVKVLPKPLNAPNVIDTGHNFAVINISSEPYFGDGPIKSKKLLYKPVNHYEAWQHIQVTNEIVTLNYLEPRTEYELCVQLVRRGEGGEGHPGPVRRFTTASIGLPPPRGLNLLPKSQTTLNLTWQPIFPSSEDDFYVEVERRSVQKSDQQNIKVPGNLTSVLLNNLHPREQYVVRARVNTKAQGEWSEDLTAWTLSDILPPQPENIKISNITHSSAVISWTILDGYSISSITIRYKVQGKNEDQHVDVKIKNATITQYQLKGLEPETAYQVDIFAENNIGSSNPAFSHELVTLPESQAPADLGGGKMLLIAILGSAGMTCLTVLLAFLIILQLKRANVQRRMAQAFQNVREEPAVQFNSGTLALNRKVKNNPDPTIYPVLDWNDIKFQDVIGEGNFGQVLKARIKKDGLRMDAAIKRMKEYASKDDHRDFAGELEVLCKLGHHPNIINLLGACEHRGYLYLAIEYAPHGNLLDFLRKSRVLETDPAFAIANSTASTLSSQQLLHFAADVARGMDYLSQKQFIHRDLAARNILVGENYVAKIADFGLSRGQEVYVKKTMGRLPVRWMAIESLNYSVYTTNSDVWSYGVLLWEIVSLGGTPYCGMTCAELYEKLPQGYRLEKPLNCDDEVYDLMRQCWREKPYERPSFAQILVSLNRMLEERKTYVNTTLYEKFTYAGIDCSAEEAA
Met(h), sequence (P08581 25-1390): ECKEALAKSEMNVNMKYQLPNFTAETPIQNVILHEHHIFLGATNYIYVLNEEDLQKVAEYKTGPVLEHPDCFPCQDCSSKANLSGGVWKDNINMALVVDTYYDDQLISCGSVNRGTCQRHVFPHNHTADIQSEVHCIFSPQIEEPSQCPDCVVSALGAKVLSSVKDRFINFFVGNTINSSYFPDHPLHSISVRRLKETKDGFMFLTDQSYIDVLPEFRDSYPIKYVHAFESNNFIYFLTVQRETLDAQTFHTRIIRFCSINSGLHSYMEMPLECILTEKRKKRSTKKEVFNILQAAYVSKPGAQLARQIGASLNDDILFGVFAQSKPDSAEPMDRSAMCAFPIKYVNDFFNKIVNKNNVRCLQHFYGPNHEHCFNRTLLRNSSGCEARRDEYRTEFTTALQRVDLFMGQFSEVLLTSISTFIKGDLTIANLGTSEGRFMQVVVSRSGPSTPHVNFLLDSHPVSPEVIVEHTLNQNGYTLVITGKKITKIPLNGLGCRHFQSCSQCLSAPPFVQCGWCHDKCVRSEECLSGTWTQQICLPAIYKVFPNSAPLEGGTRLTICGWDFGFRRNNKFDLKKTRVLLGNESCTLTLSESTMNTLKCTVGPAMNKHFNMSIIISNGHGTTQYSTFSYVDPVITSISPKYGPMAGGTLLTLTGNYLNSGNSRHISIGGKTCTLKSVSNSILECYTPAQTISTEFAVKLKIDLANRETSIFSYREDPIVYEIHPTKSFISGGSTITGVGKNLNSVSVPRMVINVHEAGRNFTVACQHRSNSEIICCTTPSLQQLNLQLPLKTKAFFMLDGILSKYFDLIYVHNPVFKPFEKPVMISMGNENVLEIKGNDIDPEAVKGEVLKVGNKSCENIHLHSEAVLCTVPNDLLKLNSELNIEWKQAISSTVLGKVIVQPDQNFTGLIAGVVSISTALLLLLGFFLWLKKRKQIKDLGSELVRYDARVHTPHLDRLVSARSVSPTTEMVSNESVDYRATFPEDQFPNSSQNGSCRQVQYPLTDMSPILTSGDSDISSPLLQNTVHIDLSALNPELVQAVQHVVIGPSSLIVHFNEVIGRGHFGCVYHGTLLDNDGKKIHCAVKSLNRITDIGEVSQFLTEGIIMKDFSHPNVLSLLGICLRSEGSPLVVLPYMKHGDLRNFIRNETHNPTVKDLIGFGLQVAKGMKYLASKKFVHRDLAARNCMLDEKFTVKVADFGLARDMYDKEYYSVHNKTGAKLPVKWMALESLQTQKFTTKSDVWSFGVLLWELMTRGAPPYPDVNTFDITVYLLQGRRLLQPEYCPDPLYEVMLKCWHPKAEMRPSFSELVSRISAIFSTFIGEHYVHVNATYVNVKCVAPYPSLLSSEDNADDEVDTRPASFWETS
cSRC(h), sequence (P12931 whole entry): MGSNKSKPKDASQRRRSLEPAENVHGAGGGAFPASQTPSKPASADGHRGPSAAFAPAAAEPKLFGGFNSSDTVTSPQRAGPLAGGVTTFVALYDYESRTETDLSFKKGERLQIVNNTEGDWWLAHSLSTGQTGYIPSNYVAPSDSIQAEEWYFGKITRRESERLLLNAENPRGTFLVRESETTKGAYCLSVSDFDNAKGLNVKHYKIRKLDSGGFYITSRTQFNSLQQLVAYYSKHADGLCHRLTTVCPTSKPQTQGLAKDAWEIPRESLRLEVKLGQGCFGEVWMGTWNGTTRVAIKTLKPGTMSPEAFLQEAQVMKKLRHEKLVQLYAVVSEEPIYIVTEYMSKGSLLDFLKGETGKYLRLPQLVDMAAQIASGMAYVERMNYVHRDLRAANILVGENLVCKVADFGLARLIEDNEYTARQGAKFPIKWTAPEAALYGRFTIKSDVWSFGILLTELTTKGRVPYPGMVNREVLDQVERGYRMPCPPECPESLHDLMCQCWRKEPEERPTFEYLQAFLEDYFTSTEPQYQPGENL

SMILES: O=C(Nc1cc(Nc2ncccc2-c2ncnc3[nH]cnc23)ccc1F)c1cc(C(F)(F)F)cc(C(F)(F)F)c1 [SJ-C1044, N-(5-(3-(9H-purin-6-yl)pyridin-2-ylamino)-2-fluorophenyl)-3,5-bis(trifluoromethyl)benzamide]
- inhibition at 10 µM (PKCθ(h)): 5%
- IC50 (TIE2): 23 nM
- inhibition at 10 µM (TIE2): 97%
- inhibition at 10 µM (cSRC(h)): 38%
- inhibition at 10 µM (Met(h)): 13%
- inhibition at 10 µM (EphB2(h)): -8%
- GI50 (LS513 (KRAS G12D)): 290 nM
- inhibition at 10 µM (CDK2/cyclinE(h)): 2%
- GI50 (HT29 (BRAF V600E)): 247 nM
- inhibition at 10 µM (PKD2(h)): 3%
- IC50 [1]: 160 to 628 nM
- inhibition at 10 µM (PI3Kinase(p110a/p85a)(h)): 23%
- inhibition at 10 µM (Rsk3(h)): 4%
- inhibition at 10 µM (CDK2/cyclinA(h)): -8%
- GI50 (SW620 (KRAS G12V)): 628 nM
- TGI ([2]; 20 mg/kg po QD): 72%
- TGI ([2]; 40 mg/kg po QD): 87%
- TGI ([2]; 80 mg/kg po QD): 107%
- inhibition at 10 µM (CDK7/cyclinH/MAT1(h)): 10%
- inhibition at 10 µM (CK2(h)): -11%
- inhibition at 10 µM (MAPK2(h)): -7%
- inhibition at 10 µM (Aurora-A(h)): 3%
- inhibition at 10 µM [3]: 37%
- IC50 (ARAF): > 10000 nM
- inhibition at 10 µM (ARAF; Table S1 no. 8): 44%
- inhibition at 10 µM (ARAF; second A-Raf(h) entry, Table S1 no. 62): -6%
- inhibition at 10 µM (PKA(h)): -2%
